Experimental data: US8778389B2, “Medicament for the treatment of fungal infections particularly aspergillosis” (Sigma-Tau Industrie Farmaceutiche Riunite S.p.A., priority 2004, dated 2014)
Entries after “also recorded” stand apart in the source; their conditions may differ. Like-named read-outs stand apart in the source and are kept apart here.

How the values were obtained:
A. fumigatus [1] = type: in vivo, mice
Experimental: Lethally irradiated C3H/HeJ mice were infused with T-cell-depleted BM cells of BALB/c mice (2×10^6) one week before intra-nasal infection with 2×10^7 Aspergillus conidia. The mice were treated with PTX3 or with the polyenes, at the doses and via the routes indicated, 5 days before (Pre-) or after (Post-) or concomitantly with infection (Con.), in each case repeating the administration for the next 5 days. Resistance to the infection was assessed as percentage survival. The fungal load in the lungs, brains and kidneys of the infected mice was quantified by serial plating on the Sabouraud dextrose medium of the lavages of the various organs and the results were expressed as colony forming units (CFU) (mean±SE) in samples taken from the organs indicated and performed at the time of death for the mice that died […] or otherwise at 6 days after infection. The groups consisted of 6 animals.
BM-transplanted mice, generated as described in detail in the legend to FIG. 1, were infected intranasally with 2×10^7 Aspergillus conidia and treated intraperitoneally with each single agent alone or in combination, before (Pre-) or after (Post-) infection. The doses were: 0.04 and 0.2 mg/kg PTX3 before or after infection, respectively; 1 mg/kg AmBisome and 2 mg/kg Fungizone.
Bone marrow (BM) cells from BALB/c donor mice were prepared by differential agglutination with soy agglutinin.
The A. fumigatus strain was supplied by a fatal case of pulmonary aspergillosis at the Institute for Infectious Diseases of the University of Perugia (13). For infection, the mice were lightly anaesthetised by means of the inhalation of ethyl ether prior to the instillation of a suspension of 2×10^7 conidia/20 μL saline solution, which was delivered slowly through the nostrils using a micropipette with a sterile disposable tip. This procedure was repeated for 3 consecutive days. For reinfection, the mice surviving the primary intranasal (i.n.) infection were inoculated with 5×10^5 of Aspergillus conidia i.v. The fungal load in the lungs, brain and kidneys of the infected mice was quantified by serial plating on Sabouraud dextrose medium and the results (mean±SE) were expressed as colony forming units (CFU) in samples taken from the organs indicated. For selected experiments, the fungal growth was also evaluated by chitin analysis (10). For the histological analysis, the lung was removed and immediately fixed in formalin. Sections (3 to 4 μm) of tissues embedded in paraffin were stained with the periodic acid Schiff base procedure (13, 20).
PTX3 (SIGMA-Tau, Pomezia, Rome, Italy) was purified by immunoaffinity chromatography from the culture supernatants of CHO cells CHO transfected with PTX3 and monitored for the absence of endotoxins (20). PTX3, amphotericin B deoxycholate (D-AmB, Fungizone, Bristol-Myers Squibb, Sermoneta, Italy) and liposomal amphotericin B (L-AmB, AmBisome, GILEAD, Milan, Italy) were diluted to the desired concentrations in sterile saline solution (PTX3) or in a 5% glucose-water solution.

[2] = system: IL-12 p70, IL-10, TNF-α, IFN-γ, IL-4; experiment: Cytokine levels (ELISA) and cytokine-producing CD4+ T spleen cells (ELISPOT) in mice with invasive aspergillosis; type: in vivo
Experimental: (§1) BM-transplanted mice, generated as described in detail in the legend to FIG. 1, were infected intranasally with 2×10^7 Aspergillus conidia and treated with 1 mg/kg PTX3 intraperitoneally both before infection (oblique line bars) and from the day of infection and continuing for another 3 days (dotted bars). At 3 days after infection, IL-12 p70 and IL-10 levels were determined by specific ELISA analyses in bronchoalveolar lavage fluids (A), the number of CD4^+ T spleen cells producing cytokines were numbered by ELISPOT analysis (B) and the gene expression of cytokine on CD4^+ spleen cells was determined by real-time PCR. Bars indicate standard errors. *P<0.05, infected vs. non-infected mice; **P<0.05, PTX3-treated vs untreated mice. Non-infected mice (white bars); infected mice (black bars).
BM-transplanted mice, generated as described in detail in the legend to FIG. 1, were infected intranasally with 2×10^7 Aspergillus conidia and treated intraperitoneally with each individual agent alone or in combination after infection. The dosages were as described in detail in the legend to FIG. 6. […] levels (pg/ml) were determined in bronchoaleveolar lavage fluids 3 days after infection (A) and IFN-γ and IL-4 levels (pg/ml) in the culture supernatants of the antigen-activated spleen cells (B) performed at the time of death for those mice that died before, or otherwise at 6 days after infection. Bars indicate standard errors. (−, untreated mice). *P<0.05 treated vs. untreated mice; **P<0.05, combination treatment with PTX3+Fungizone (D-AmB) vs D-AmB alone; ***P<0.05, combination treatment with PTX3+AmBisome (L-AmB) vs each single treatment alone.
The levels of cytokines in the bronchoalveolar lavage fluids and in the supernatants of the cultures of spleen cells stimulated with Aspergillus (9, 10), thermally […], were determined using the ELISA Kit (R&D Systems, Inc. Space Import-Export srl, Milan Italy). The detection limits of the analyses (pg/ml) were <16 for IL-12 p70, <32 for TNF-α, <10 for IFN-γ and <3 for IL-4 and IL-10. For the numbering of the CD4^+ T cells producing cytokines, ELISPOT analysis was used on purified CD4^+ T spleen cells (9, 10). The results were expressed as the mean number of cells producing cytokines (±SE) per 10^5 cells, calculated using replicates of the serial cell dilutions.

A. fumigatus [3] = experiment: In-vitro direct killing activity on the fungus; type: cell-based; conditions: data not shown
IFN-γ and IL-4 mRNA = experiment: Cytokine gene expression on CD4+ spleen cells by real-time RT-PCR; type: in vivo, mice; conditions: prophylactic and therapeutic treatment
Experimental: as §1
Total RNA (5 μg, extracted from CD4^+ T spleen cells using the RNeasy Mini Kit (QIAGEN S.p.A., Milan, Italy)) was retrotranscribed with Sensiscript reverse transcriptase (QIAGEN) according to the manufacturer's indications. The primers for PCR were obtained from Applied Biosystems (Foster City, Calif.). […] The data normalised with RNA 18S were expressed as relative mRNA of the cytokines examined (ΔΔCt) and compared with those of naive mice (10).

Aspergillus conidia [4] = experiment: Resistance to Aspergillus reinfection (i.v.) in cured BM-transplanted mice; type: in vivo; conditions: PTX3 concomitantly with primary infection; i.v. reinfection two weeks later; CFU 3 days after reinfection
Description: FIG. 2 illustrates the effect of the administration of PTX3 on resistance to Aspergillus reinfection. BM-transplanted mice, generated as described in detail in the legend to FIG. 1, were infected intranasally with 2×10^7 Aspergillus conidia one week after the BM transplant and treated concomitantly with PTX3 at the doses and via the administration routes indicated, starting on the day of infection and continuing for the next 5 days. Two weeks after the infection the surviving mice were reinfected intravenously with 5×10^5 Aspergillus conidia. The fungal growth (CFU) in the kidneys was evaluated 3 days after reinfection. * Indicates P<0.05 (treated vs. untreated mice).
(§2) The A. fumigatus strain was supplied by a fatal case of pulmonary aspergillosis at the Institute for Infectious Diseases of the University of Perugia (13). […] For reinfection, the mice surviving the primary intranasal (i.n.) infection were inoculated with 5×10^5 of Aspergillus conidia i.v. The fungal load in the lungs, brain and kidneys of the infected mice was quantified by serial plating on Sabouraud dextrose medium and the results (mean±SE) were expressed as colony forming units (CFU) in samples taken from the organs indicated. For selected experiments, the fungal growth was also evaluated by chitin analysis (10). […]

[5] = PTX3 levels in bronchoalveolar lavage fluids after i.n. administration; type: in vivo, mice; conditions: 0.5 mg/kg i.n.
Experimental: To assess whether PTX3 may have a beneficial effect in otherwise susceptible mice, we used BM-transplanted mice whose substantial susceptibility to IA is well documented (15). The mice were subjected to treatments with different doses of PTX3 administered intranasally or intraperitoneally, before, concomitantly with or after infection. The doses were selected on the basis of preliminary experiments showing that PTX3 levels (at the dose of 0.5 mg/kg/i.n.) were high in bronchoalveolar lavage fluids for at least 24 h (from 70 to 25 ng/ml from 2 to 24 h) and that they were higher than those observed in mice with IA one day after infection (from 2 to 15 ng/ml) (20 and unpublished data). The survival parameters and fungal load in the lung and brain were then recorded and analysed in comparison with those obtained in mice treated with different doses of AmBisome or Fungizone. […] A dose-dependent effect was detected for this administration period, in that the protective efficacy of PTX3 was lost at the dose of 0.04 mg/kg. […] No difference was observed between the two administration routes. […] These characteristics were not observed in the mice treated with PTX3, the lungs of which were characterised by healing infiltrates of poly- and mononuclear inflammatory cells with no evidence of fungal growth or destruction of the bronchial wall (FIG. 3B).

A. fumigatus [6] = experiment: Lung histology (periodic acid Schiff) in mice with invasive aspergillosis; type: in vivo; conditions: 1 mg/kg i.p. from day of infection and for another 5 days; 6 days after infection
Experimental: Periodic Schiff base sections were prepared from the lungs of the BM-transplanted mice infected with Aspergillus conidia either untreated (A) or treated (B) with 1 mg/kg PTX3 intraperitoneally from the day of infection and continuing for another 5 days. Numerous Aspergillus hyphae (arrows) infiltrate the pulmonary parenchyma, with extensive parenchymal destruction and strong signs of damage to the bronchial wall, and necrosis and poor cell recruitment are observed in the lungs of the untreated mice ([…]). […] Enlargement, ×100 in panels A and B; ×400 in insets.
as §2

[7] = system: CD4+, CD8+, Gr-1+, F4-80+ cells; experiment: Cell recovery by FACS analysis of lung and spleen cells and blood leukocyte count in mice with invasive aspergillosis; type: in vivo
Experimental: BM-transplanted mice, generated as described in detail in the legend to FIG. 1, were infected intranasally with 2×10^7 Aspergillus conidia and treated (+) or untreated (−) with 1 mg/kg PTX3 intraperitoneally from the day of infection and continuing for another 5 days. The numbers refer to the percentage of positive cells, reported by the FACS analysis in the lungs (A) and in the spleen (B), 3 or 6 days after infection.
The phenotype of the various cell types was assessed using murine antibodies against the antigens indicated with rat anti-mouse antibodies conjugated with FITC from PharMingen (San Diego, Calif.). Prior to immunochemical identification, the FcR was saturated by incubation of the cells with 5% normal serum. Histotype antibodies were used as controls. The analysis was done by means of FACScan (Becton Dickinson, Mountain View, Calif.). The data obtained were evaluated as percentage of positive cells. The histograms are representative of one of four independent experiments.

Aspergillus conidia [8] = experiment: Conidia-killing activity of effector phagocytes from treated mice; type: in vivo; conditions: treated vs untreated mice; data not shown
[9] = 1 mg/kg i.p., 3 days after infection, vs untreated control

With “PTX3: long pentraxin PTX3 purified by immunoaffinity chromatography from culture supernatants of CHO cells transfected with PTX3” the survival (A. fumigatus [1]; PTX3 administered after infection) was “increased the survival of the mice only at the higher dose”, the survival (A. fumigatus [1]; PTX3 administered prophylactically, any of the doses assayed) was at least 60 days and the “fungal load in the lung” value (A. fumigatus [1]; after infection, both doses) was “significantly reduced”. For the same substance, the “fungal load in the brain” value (A. fumigatus [1]; after infection, higher dose) was “significantly reduced”, the protective efficacy (A. fumigatus [1]; concomitantly with infection, 0.04 mg/kg) was “lost” and the “fungal load in the lungs and brain” value (A. fumigatus [1]; prophylactic, particularly at highest dose (1 mg/kg), vs untreated) was “significantly reduced”. The “increase of IL-12 production” value [2, 9] was “approximately 4 fold”, the “production of IL-10” value [2, 9] was “halved” and the “frequency of CD4+ Th1 cells in the spleen” value ([2]; ELISPOT) was “increased”. For the same substance, the “frequency of cells producing IL-4 in the spleen” value ([2]; ELISPOT) was “reduced”, the “production of IL-4 by spleen cells” value ([2]; antigen-stimulated spleen cell supernatants, suboptimal doses) was “greatly reduced” and the “production of TNF-α” value ([2]; lungs of infected mice treated with PTX3) was “not increased”. The “direct killing activity on the fungus” value (A. fumigatus [3]) was “ruled out any direct killing activity”, the “expression of IFN-γ mRNA” value (IFN-γ and IL-4 mRNA) was “significantly increased” and the “expression of IL-4 mRNA” value (IFN-γ and IL-4 mRNA) was “reduced”. For the same substance, the “fungal growth in the kidneys of reinfected mice” value (Aspergillus conidia [4]) was “reduced”, the “time PTX3 levels were high in bronchoalveolar lavage fluids” value [5] was “at least 24 h” and the lung pathology (A. fumigatus [6]) was “no evidence of parenchymal destruction or fungal growth; also recorded: improved”. The “numbers of CD4+ cells, CD8+ cells and Gr-1+ neutrophils in the lungs” value ([7]; 1 mg/kg i.p., FACS) was “significantly increased”, the “recovery of neutrophils and, partly, of CD4+ T cells in the spleens” value ([7]; 1 mg/kg i.p., FACS) was “observed” and the “absolute number of circulating neutrophils” value ([7]; blood leukocytes, data not shown) was “increased significantly”. For the same substance, the “number of F4-80+ cells of the lungs or spleens” value ([7]; with or without PTX3 treatment) was “No difference” and the “conidia-killing activity of the effector phagocytes” value (Aspergillus conidia [8]) was “higher”.
